# Experimental data published in publication PMC10928712, “High Target Homology Does Not Guarantee Inhibition: Aminothiazoles Emerge as Inhibitors of Plasmodium falciparum” (ACS Infectious Diseases, 2024).
# What was measured:
# [1] = Metabolic stability in human liver S9 fraction; type: in vitro ADME; details: human, pooled liver S9 fraction, 1 μM compound
# Procedure: For the evaluation of combined phase I and phase II metabolic stability, the compound (1 μM) was incubated with 1 mg/mL pooled liver S9 fraction (XenoTech), 2 mM NADPH, 1 mM UDPGA, 10 mM MgCl2, 5 mM GSH, and 0.1 mM PAPS at 37 °C for 0, 5, 15, 30, and 60 min. The metabolic stabilities of testosterone (1 μM), verapamil (1 μM), and propranolol (1 μM) were determined in parallel to confirm the enzymatic activity of the S9 fraction. The incubation was stopped by precipitation of S9 enzymes with two volumes of cold acetonitrile containing internal standard (150 nM diphenhydramine). Samples were stored on ice for 10 min, and precipitated protein was removed by centrifugation (15 min, 4 °C, 4000 rpm). The concentration of the remaining test compound at the different time points was analyzed by LC-MS/MS (TSQ Quantum Access MAX, Thermo Fisher, Dreieich, Germany) and used to determine half-life (t1/2).
# P. falciparum 3D7-TPK+ = experiment: Growth inhibition of PfTPK overexpressing parasites (3D7-TPK+); type: cell-based; details: Plasmodium falciparum, 3D7, read-out: PfTPK IC50
# Procedure: P. falciparum cultures were treated as described in method I. For target specification toward PfTPK and PfDXPS, compounds were tested in comparison against overexpressing cell lines and the respective MOCK line containing only the transfected vector backbone. Parasite viability/proliferation was determined. Analysis of the IC50 values and interpretation of the curves was performed, as described in Section 4.1.2.44.
# eq 1: Fluorescence data normalization [drawing 2] where y is the fluorescence signal in each well, yminimum is the background fluorescence, and ymaximum is the highest measured fluorescence signal in the untreated wells. Drug concentrations (in μM) were transformed to the log(10)of the values. Means of each independent experiment were plotted as individual values, and the SD of the mean from the means shown as error bars. […] In case of transgenic cell lines, the built-in comparison Akaike’s information criteria (AICc) method was applied to the Log IC50s of the different cell lines. The test calculates a percentage probability of the simpler model “Log IC50 is the same for datasets” being correct. The test for homoscedasticity was performed to confirm if no weighting of values was appropriate.
structure (smiles),measurement,setting,value
Cc1nc(N)sc1-c1csc(Nc2ccc(C(F)(F)F)cc2)n1 [compound 1],half-life at 1 μM,[1],> 4 h
same,IC50,P. falciparum 3D7-TPK+,1.76 µM
